In ChEMBL document CHEMBL1135031, “Sequestration of bacterial lipopolysaccharide by bis(Args) gemini compounds” (Bioorg Med Chem Lett, 2002):
Values after ≈ are worked out from the molar mass of the structure shown.

Assays:
J774.A1 = assay: Inhibition of TNF-a production by J774.A1 cells stimulated for 18 hr with Escherichia coli O111:B4 LPS (25 ng/mL); assay type: functional; conditions: Mus musculus, J774.A1, 18 h; read-out: ED50 (the source's name)
Mus musculus [1] = assay: Tested for protective effect in D-galactosamine (800 mg/kg) sensitized mice injected with lipopolysaccharides at 20 ng/mouse and compound dose of 40 ug/mouse (ip); 0/10 (dead/ Total mice); assay type: functional
Mus musculus [2] = assay: Tested for protective effect in D-galactosamine (800 mg/kg) sensitized mice injected with lipopolysaccharides at 40 ng/mouse and compound dose of 40 ug/mouse (ip); 6/10 (dead/ Total mice); assay type: functional
[3] = Dose that resulted in 100% lethality in murine model of CF-1 mice; assay type: ADME; conditions: mouse, in vivo
Mus musculus [4] = assay: Tested for protective effect in D-galactosamine (800 mg/kg) sensitized mice injected with lipopolysaccharides at 0 ng/mouse and compound dose of 10 ug/mouse (ip); 0/5 (dead/ Total mice); assay type: functional
Mus musculus [5] = assay: Tested for protective effect in D-galactosamine (800 mg/kg) sensitized mice injected with lipopolysaccharides at 0 ng/mouse and compound dose of 40 ug/mouse (ip); 0/5 (dead/ Total mice); assay type: functional
Mus musculus [6] = assay: Tested for protective effect in D-galactosamine (800 mg/kg) sensitized mice injected with lipopolysaccharides at 20 ng/mouse and compound dose of 10 ug/mouse (ip); 7/10 (dead/ Total mice); assay type: functional
Mus musculus [7] = assay: Tested for protective effect in D-galactosamine (800 mg/kg) sensitized mice injected with lipopolysaccharides at 20 ng/mouse and compound dose of 0 ug/mouse (ip); 5/5 (dead/ Total mice); assay type: functional
Mus musculus [8] = assay: Tested for protective effect in D-galactosamine (800 mg/kg) sensitized mice injected with lipopolysaccharides at 40 ng/mouse and compound dose of 10 ug/mouse (ip); 9/10 (dead/ Total mice); assay type: functional
Mus musculus [9] = assay: Tested for protective effect in D-galactosamine (800 mg/kg) sensitized mice injected with lipopolysaccharides at 40 ng/mouse and compound dose of 0 ug/mouse (ip); 5/5 (dead/ Total mice); assay type: functional

Work on `CCCCCCCCCCCC(=O)N[C@@H](CCCN=C(N)N)C(=O)NCCCCCCCCCNC(=O)[C@H](CCCN=C(N)N)NC(=O)CCCCCCCCCCC` yielded an EC50 (J774.A1) of 2.5 µg/mL (≈ 2.99 µM), a Lethality (Mus musculus [1]) of 0 and a Lethality (Mus musculus [2]) of 6. For the same compound, the Lethal dose [3] was 10 ng/mL, the Lethality (Mus musculus [4]) was 0 and the Lethality (Mus musculus [5]) was 0. For the same compound, the Lethality (Mus musculus [6]) was 7, the Lethality (Mus musculus [7]) was 5 and the Lethality (Mus musculus [8]) was 9. The Lethality (Mus musculus [9]) was 5.
`CCCCCCCCCCCC(=O)N[C@@H](CCCN=C(N)N)C(=O)NCCCCCCNC(=O)[C@H](CCCN=C(N)N)NC(=O)CCCCCCCCCCC` showed an EC50 (J774.A1) of 1.4 µg/mL (≈ 1.77 µM).
